How the values were obtained:
[1] = Metabolite identification in human liver microsomes; format: in vitro ADME; settings: metabolite +16 Da, seen at 45 and 90 min, not at 0 min
Experimental: A total of 450 μL of human liver microsomes were spiked with 0.5 μL of the substrate TPB15 and incubated in a water bath at 37 °C for 10 min. The reaction was initiated by adding 50 μL of NADPH. Following incubation, 50 μL of the reaction mixture were transferred to 150 μL of ice-cold methanol to terminate the reaction. The mixture was then centrifuged at 14,800 rpm at 4 °C for 10 min. A volume of 5 μL of the supernatant was collected for analysis using a QTRAP 4000 mass spectrometer(AB Sciex, Framingham, MA, USA), with three parallel samples prepared for each time point. The primary mass spectrometry conditions were as follows: curtain gas at 30 psi, sprayer gas (GS1) at 50 psi, drier gas (GS2) at 50 psi, ion source temperature at 550 °C, and cluster-removal voltage at 100 V. The ion source (IS) spray voltage was set to 5500 V, with a focusing potential (FP) of 200 V, an entrance potential (EP) of 10 V, an exit potential (CXP) of 15 V, and a collision energy of 86 V for TPB15. Chromatographic separation was performed using an Agilent ZORBAX Stable Bond C18 column (50 mm × 2.1 mm i.d., 3.5 μm particle size) at a column temperature of 35 °C. The injection volume was 5 μL, and the elution was carried out in gradient mode. The mobile phase consisted of two components: mobile phase A (an aqueous solution with 0.1% formic acid) and mobile phase B (methanol). […]

Stability in mice plasma = format: in vitro ADME, KM mice; settings: 37 °C, 453 μg/L
Experimental: (§1) A total of 696.5 μL of plasma from each species (healthy mice, rat, dog, monkey, and human) were spiked with 3.5 μL of TPB15 stock solution ([…] in DMSO), resulting in a final TPB15 concentration of 453 μg/L in plasma. The mixture was then aliquoted into three tubes, each with a volume of 200 μL, maintaining a final DMSO concentration of 0.5%. After incubation in a water bath at 37 °C for 0, 30, 60, 90, and 120 min, 100 µL samples were transferred into EP tubes. Subsequently, 10 µL of internal standard working solution were added, followed by vortex mixing. Then, 500 µL of ethyl acetate were added, and the mixture was vortexed again before being centrifuged at 14,800 rpm at 4 °C for 10 min. A total of 400 µL of the supernatant were transferred into a new EP tube and placed in a vacuum concentrator (Bionoon-VAC2) (Bionoon Biotech, Shanghai, China) to dry for 1 h. The dried residue was reconstituted with 100 µL of mobile phase, vortex mixed thoroughly, and centrifuged again at 14,800 rpm at 4 °C for 10 min. A volume of 5 µL of the supernatant was then taken for LC-MS/MS analysis to determine the drug concentration. Additionally, a blank control group was established, in which PBS buffer was used in place of blank plasma in the incubation system.

[2] = Plasma protein binding by ultrafiltration, mouse plasma; format: in vitro ADME, KM mice; settings: KM; mouse plasma, 4 to 16 μg/mL; read-out: average plasma protein binding rates, range over concentrations
Experimental: (§2) To prepare plasma samples of TPB15 at final concentrations of 4, 8, and 16 μg/mL, 1 μL of TPB15 dissolved in dimethyl sulfoxide (DMSO) at low (400 μg/mL), medium (800 μg/mL), and high (1600 μg/mL) concentrations was added to 99 μL of blank plasma obtained from humans, rats, mice, monkeys, and dogs. Each concentration was prepared in six replicates. The samples were then divided into two groups: one for determining the pre-ultrafiltration concentration (Cpre) and the other for measuring the post-ultrafiltration concentration (Ct), following the evaluation of the non-specific binding coefficient (NSB) of TPB15 to the ultrafiltration tubes. For Cpre determination, 10 μL of the sample was mixed with 990 μL of plasma, vortexed thoroughly, and analyzed for drug concentration using the previously reported liquid chromatography–tandem mass spectrometry (LC-MS/MS) method. For Ct determination, the samples were first incubated in a water bath at 37 °C for 3 h. After incubation, they were transferred to ultrafiltration tubes and centrifuged at 14,000 rpm for 20 min at 4 °C using a centrifuge (Sigma 3K-15) from Sigma Laborzentrifugen GmbH (Osterode am Harz, Germany). After centrifugation, 10 μL of the ultrafiltrate was mixed with 990 μL of plasma, vortexed, and analyzed for concentration using the same LC-MS/MS method. The formula for calculating the plasma protein binding rate (PPB) is as follows: PPB (%) = [1 − Ct/(1 − NSB)/Cpre] × 100%. (NSB: non-specific binding coefficient. Cpre: post-ultrafiltration concentration. Ct: pre-ultrafiltration concentration).

mouse plasma protein = assay: as above; format: in vitro ADME, KM mice; settings: 37 °C 3 h
Experimental: as §2

[3] = Plasma protein binding by ultrafiltration, monkey plasma; format: in vitro ADME, cynomolgus monkey
Experimental: as §2

[4] = Plasma protein binding, overall across the five species; format: in vitro ADME, mice, rats, dogs, monkeys, humans; settings: monkey, human, all species tested, low, medium and high concentrations (4 to 16 μg/mL), read-out: plasma protein binding rate, overall
Experimental: as §2, with “The formula for calculating the plasma protein binding rate (PPB) is as follows: PPB (%) = [1 − Ct/(1 − NSB)/Cpre] × 100%. (NSB: non-specific binding coefficient. Cpre: post-ultrafiltration concentration. Ct: pre-ultrafiltration concentration).” left out

[5] = Stability in human plasma; format: in vitro ADME; settings: 37 °C, 453 μg/L
Experimental: as §1

## O=C(Nc1ccc(Cl)c(-c2nnc3c(Cl)cccn23)c1)c1ccc(Cl)nc1Cl [TPB15]
[1]
  metabolic reaction of TPB15 in human liver microsomes: oxidation
Stability in mice plasma; incubation 0 min
  Remaining proportion of substrate TPB15 (%) KM mice: 100.0 ± 0.7%
Stability in mice plasma; incubation 30 min
  Remaining proportion of substrate TPB15 (%) KM mice: 98.6 ± 0.9%
Stability in mice plasma; incubation 60 min
  Remaining proportion of substrate TPB15 (%) KM mice: 98.0 ±1.5%
Stability in mice plasma; incubation 90 min
  Remaining proportion of substrate TPB15 (%) KM mice: 97.1 ± 0.7%
Stability in mice plasma; incubation 120 min
  Remaining proportion of substrate TPB15 (%) KM mice: 98.0 ± 1.2%
[2]
  fraction unbound at 3 h: 0.176 to 0.188
Mouse plasma protein; 4 μg/mL TPB15, ultrafiltration
  Plasma Protein Binding (%) KM Mice: 81.80 ± 0.10%
Mouse plasma protein; 8 μg/mL TPB15, ultrafiltration
  Plasma Protein Binding (%) KM Mice: 81.21 ± 0.34%
Mouse plasma protein; 16 μg/mL TPB15, ultrafiltration
  Plasma Protein Binding (%) KM Mice: 82.40 ± 0.42%
[3]; cynomolgus monkey, plasma, 4 μg/mL TPB15, ultrafiltration, 37 °C 3 h
  fraction unbound at 3 h, 4 μg/mL: 0.185
[3]; cynomolgus monkey, plasma, 8 μg/mL TPB15, ultrafiltration, 37 °C 3 h
  fraction unbound at 3 h, 8 μg/mL: 0.188
[3]; cynomolgus monkey, plasma, 16 μg/mL TPB15, ultrafiltration, 37 °C 3 h
  fraction unbound at 3 h, 16 μg/mL: 0.178
[3]; monkey plasma, 4 to 16 μg/mL, read-out: average plasma protein binding rates, range over concentrations
  fraction unbound at 3 h: 0.178 to 0.188
[4]; SD (rat), KM (mouse), beagle (dog)
  fraction unbound at 3 h: 0.176 to 0.191
[4]; mouse, rat, dog
  fraction unbound at 3 h: 0.176 to 0.185
[5]; incubation 0 min
  Remaining proportion of substrate TPB15 (%) Human: 100.0 ± 1.0%
[5]; incubation 30 min
  Remaining proportion of substrate TPB15 (%) Human: 97.3 ± 1.5%
[5]; incubation 60 min
  Remaining proportion of substrate TPB15 (%) Human: 97.7 ± 0.6%
[5]; incubation 90 min
  Remaining proportion of substrate TPB15 (%) Human: 98.0 ± 1.0%
[5]; incubation 120 min
  Remaining proportion of substrate TPB15 (%) Human: 97.2 ± 1.1%

From article PMC12030497, “Plasma Protein Binding, Biostability, Metabolite Profiling, and CYP450 Phenotype of TPB15 Across Different Species: A Novel Smoothened Inhibitor for TNBC Therapy” (Pharmaceutics, 2025)
